ChEMBL document CHEMBL1201862, “PubChem BioAssay data set” (2004)
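Step 1: Grow cells in 96-well plates. Step 2: Expose to compound for 48 hours at 5 concentrations. Step 3: Interpolate endpoints linearly; if unreached, use highest concentration. GI50 marks 50% less growth.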 Activity calls are given as the source filed them. Rule as the data show it: active = GI50 up to about 1.1 µM and inactive = higher.

Key:
Assay in all cases: NCI tumour cell line growth inhibition, 48 h
DU-145 = system: DU-145
UACC-62 = system: UACC-62
SK-MEL-28 = system: SK-MEL-28
NCI/ADR-RES = system: NCI/ADR-RES
SN12C = system: SN12C
MCF7 = system: MCF7
RPMI-8226 = system: RPMI-8226
EKVX = system: EKVX
KM12 = system: KM12
U-251 = system: U-251
MDA-N = system: MDA-N
CCRF-CEM = system: CCRF-CEM
COLO 205 = system: COLO 205
HCT-116 = system: HCT-116
OVCAR-8 = system: OVCAR-8
Malme-3M = system: Malme-3M
K562 = system: K562
PC-3 = system: PC-3
HL-60 = system: HL-60
NCI-H23 = system: NCI-H23
NCI-H460 = system: NCI-H460
MDA-MB-435 = system: MDA-MB-435
LOX IMVI = system: LOX IMVI
MOLT-4 = system: MOLT-4
NCI-H226 = system: NCI-H226
SF-295 = system: SF-295
UACC-257 = system: UACC-257
HOP-92 = system: HOP-92
OVCAR-3 = system: OVCAR-3
SF-539 = system: SF-539
HCC 2998 = system: HCC 2998
HCT-15 = system: HCT-15
SNB-19 = system: SNB-19
CAKI-1 = system: CAKI-1
786-0 = system: 786-0
T47D = system: T47D
TK-10 = system: TK-10
A498 = system: A498
HT-29 = system: HT-29
ACHN = system: ACHN
HOP-62 = system: HOP-62
OVCAR-5 = system: OVCAR-5
A549 = system: A549
SF-268 = system: SF-268
SW-620 = system: SW-620
BT-549 = system: BT-549
MDA-MB-231 = system: MDA-MB-231
Hs-578T = system: Hs-578T
UO-31 = system: UO-31
OVCAR-4 = system: OVCAR-4
SK-MEL-5 = system: SK-MEL-5
SK-OV-3 = system: SK-OV-3
RXF 393 = system: RXF 393
M14 = system: M14
IGROV-1 = system: IGROV-1
NCI-H522 = system: NCI-H522
SR = system: SR
SK-MEL-2 = system: SK-MEL-2

Structure (SMILES): Cc1ccc(OCC2CO2)c(Br)c1 (stereo not given)
- GI50 (DU-145): 38.4 µM (inactive)
- GI50 (UACC-62): 17.7 µM (inactive)
- GI50 (SK-MEL-28): 27.5 µM (inactive)
- GI50 (NCI/ADR-RES): 15.8 µM (inactive)
- GI50 (SN12C): 18.6 µM (inactive)
- GI50 (MCF7): 14.7 µM (inactive)
- GI50 (RPMI-8226): 25.1 µM (inactive)
- GI50 (EKVX): 13.8 µM (inactive)
- GI50 (KM12): 66.7 µM (inactive)
- GI50 (U-251): 15.2 µM (inactive)
- GI50 (MDA-N): 19.5 µM (inactive)
- GI50 (CCRF-CEM): 27.9 µM (inactive)
- GI50 (COLO 205): 17.7 µM (inactive)
- GI50 (HCT-116): 16.1 µM (inactive)
- GI50 (OVCAR-8): 7.8 µM (inactive)
- GI50 (Malme-3M): 56.5 µM (inactive)
- GI50 (K562): 22.3 µM (inactive)
- GI50 (PC-3): 47.3 µM (inactive)
- GI50 (HL-60): 30.1 µM (inactive)
- GI50 (NCI-H23): 22.5 µM (inactive)
- GI50 (NCI-H460): 21.9 µM (inactive)
- GI50 (MDA-MB-435): 18.7 µM (inactive)
- GI50 (LOX IMVI): 12.1 µM (inactive)
- GI50 (MOLT-4): 7.83 µM (inactive)
- GI50 (NCI-H226): 15.9 µM (inactive)
- GI50 (SF-295): 21 µM (inactive)
- GI50 (UACC-257): 37.8 µM (inactive)
- GI50 (HOP-92): 14.7 µM (inactive)
- GI50 (OVCAR-3): 25.1 µM (inactive)
- GI50 (SF-539): 15 µM (inactive)
- GI50 (HCC 2998): 16 µM (inactive)
- GI50 (HCT-15): 14 µM
- GI50 (SNB-19): 41.3 µM (inactive)
- GI50 (CAKI-1): 33.7 µM (inactive)
- GI50 (786-0): 19.5 µM (inactive)
- GI50 (T47D): 63.1 µM (inactive)
- GI50 (TK-10): 30.3 µM (inactive)
- GI50 (A498): 34.4 µM (inactive)
- GI50 (HT-29): 12.7 µM (inactive)
- GI50 (ACHN): 5.5 µM (inactive)
- GI50 (HOP-62): 39.4 µM (inactive)
- GI50 (OVCAR-5): 17.5 µM (inactive)
- GI50 (A549): 20.3 µM (inactive)
- GI50 (SF-268): 13.1 µM (inactive)
- GI50 (SW-620): 12.7 µM (inactive)
- GI50 (BT-549): < 0.01 µM (active)
- GI50 (MDA-MB-231): 21.9 µM (inactive)
- GI50 (Hs-578T): 28.5 µM (inactive)
- GI50 (UO-31): 18.5 µM (inactive)
- GI50 (OVCAR-4): 14.7 µM (inactive)
- GI50 (SK-MEL-5): 18.1 µM (inactive)
- GI50 (SK-OV-3): 19.1 µM (inactive)
- GI50 (RXF 393): 10.1 µM (inactive)
- GI50 (M14): 34.1 µM (inactive)
- GI50 (IGROV-1): 15.5 µM (inactive)

Structure (SMILES): COc1ccc2c3c1O[C@H]1[C@@H](O)CC[C@@]4(O)[C@@H](C2)N(C)CC[C@]314
- GI50 (DU-145): > 100 µM (inactive)
- GI50 (UACC-62): > 100 µM (inactive)
- GI50 (SK-MEL-28): > 100 µM (inactive)
- GI50 (NCI/ADR-RES): > 100 µM (inactive)
- GI50 (SN12C): > 100 µM (inactive)
- GI50 (MCF7): > 100 µM (inactive)
- GI50 (RPMI-8226): > 100 µM (inactive)
- GI50 (EKVX): > 100 µM (inactive)
- GI50 (KM12): > 100 µM (inactive)
- GI50 (U-251): > 100 µM (inactive)
- GI50 (MDA-N): > 100 µM (inactive)
- GI50 (CCRF-CEM): > 100 µM (inactive)
- GI50 (COLO 205): > 100 µM (inactive)
- GI50 (HCT-116): > 100 µM (inactive)
- GI50 (OVCAR-8): > 100 µM (inactive)
- GI50 (Malme-3M): > 100 µM (inactive)
- GI50 (K562): > 100 µM (inactive)
- GI50 (PC-3): > 100 µM (inactive)
- GI50 (HL-60): 2.93 µM (inactive)
- GI50 (NCI-H522): > 100 µM (inactive)
- GI50 (SR): > 100 µM (inactive)
- GI50 (NCI-H23): > 100 µM (inactive)
- GI50 (MDA-MB-435): > 100 µM (inactive)
- GI50 (LOX IMVI): > 100 µM (inactive)
- GI50 (MOLT-4): > 100 µM (inactive)
- GI50 (NCI-H226): > 100 µM (inactive)
- GI50 (SF-295): > 100 µM (inactive)
- GI50 (UACC-257): > 100 µM (inactive)
- GI50 (HOP-92): > 100 µM (inactive)
- GI50 (OVCAR-3): > 100 µM (inactive)
- GI50 (SF-539): > 100 µM (inactive)
- GI50 (HCT-15): > 100 µM
- GI50 (SNB-19): > 100 µM (inactive)
- GI50 (CAKI-1): > 100 µM (inactive)
- GI50 (786-0): > 100 µM (inactive)
- GI50 (T47D): > 100 µM (inactive)
- GI50 (TK-10): > 100 µM (inactive)
- GI50 (A498): > 100 µM (inactive)
- GI50 (HT-29): > 100 µM (inactive)
- GI50 (ACHN): > 100 µM (inactive)
- GI50 (HOP-62): > 100 µM (inactive)
- GI50 (OVCAR-5): > 100 µM (inactive)
- GI50 (A549): > 100 µM (inactive)
- GI50 (SF-268): > 100 µM (inactive)
- GI50 (SW-620): > 100 µM (inactive)
- GI50 (BT-549): > 100 µM (inactive)
- GI50 (MDA-MB-231): > 100 µM (inactive)
- GI50 (Hs-578T): > 100 µM (inactive)
- GI50 (UO-31): > 100 µM (inactive)
- GI50 (OVCAR-4): > 100 µM (inactive)
- GI50 (SK-MEL-5): > 100 µM (inactive)
- GI50 (SK-OV-3): > 100 µM (inactive)
- GI50 (SK-MEL-2): > 100 µM (inactive)
- GI50 (M14): > 100 µM (inactive)
- GI50 (IGROV-1): > 100 µM (inactive)
